# Laboratory results taken from patent US12180159B2, “Activators of the unfolded protein response” (The Board of Trustees of the University of Illinois, priority 2018, dated 2024).
# Tests used:
# [1] = tested on: protein synthesis in Caov-3 cells; assay: Inhibition of protein synthesis (35S-methionine incorporation); assay type: cell-based, human; conditions: 1,000 nM
# Description: ERα positive Caov-3, human ovarian cancer cells, were treated for the indicated times with 1,000 nM BHPI or 1,000 nM (−)-105. Cells were briefly labeled with ^35S-methionine. Incorporation of labeled ^35S-methionine into protein was determined by trichloroacetic acid precipitation and trapping of precipitated protein, but not free amino acids, in small Whatman hardened ashless filters. After solubilizing the protein in the filters with base and neutralization with acid, the samples were counted in a liquid scintillation counter. Shown is the average (n≥3) percent inhibition of protein synthesis compared to the 0-time sample. The near quantitative inhibition of protein synthesis by (−)-105 is consistent with (−)-105 inducing lethal hyperactivation of the PERK arm of the UPR. Even non-growing cells are constantly degrading protein and making new proteins. Cells in which nearly all (>90%) of protein synthesis is inhibited cannot grow and will ultimately die.
# TDG cells (T47DERαD538G) = assay: Trypan Blue exclusion cell death assay, TDG cells; assay type: cell-based, human; conditions: dose response, 24 hours, TDG-Luc cells
# Description: TRYPAN BLUE: For decades, viable cells have been measured by their ability to exclude the dye Trypan Blue. […] Dead cells, which have lost membrane integrity, take up the dye and are blue. Thus, the percentage of dead cells is the percentage of cells that are Trypan Blue positive out of the total cell population. Quantitative assessment of Trypan Blue uptake uses a cell counter from Fisher. Since the assay is instrument based, there is no observer bias in determining the percentage of Trypan Blue positive cells.
# TRYPAN BLUE ASSAYS: Assays are performed on cells in 6 well plates: 300,000 cells are plated in each well of a 6 well plate in 3 ml of medium. After 24 hours, the DMSO vehicle or the indicated compound is added (in 1000th of the vol.) The cells incubated for an additional 24 hours, and then harvested in 0.25 ml of trypsin, followed after harvest by 0.75 ml of medium. The cells are spun down and resuspended in 100-200 μl of medium left that is over the cell pellet (resuspend cells by pipetting up and down a few times). Add 10 μl to 10 μl of trypan blue. Then 10 μl is inserted into the counting slide. After inserting the slide into the Fisher TC20 counting is automatic (these many cells are needed because an accurate ratio of Trypan Blue positive to Trypan Blue negative cells requires about 200 cells in the field the instrument counts).
# The Trypan Blue cell death assay was used to evaluate the ability of the active enantiomer of C-105 [(−)-105] to kill ERα positive TDG-Luc cells. For all studies, 300,000 TDG-Luc cells/well in 10% FBS were plated in a 6 well plate in triplicate. 24 hours after plating, the indicated concentrations the active enantiomer of (−)-105, or BHPI (top) ICI, or OHT (Lower left) or (+)-105 (lower right) were added. After 24 hours, the cells were harvested, and the % dead cells was determined by automated Trypan Blue exclusion using the Countess II automated hemocytometer. Percentage of viable cells was calculated by doing 100−(Cell Death %). (n=3±SEM).
# TDG cells were incubated for 24 hours with 75 nM of BHPI or 75 nM of each of the indicated test compounds: 4, 6 and (±)-105 (enantiomers not separated). Cell death was determined using the instrument-based Trypan Blue exclusion assay. Structures are in the Synthesis section. […] (n=3±SEM).
# [2] = tested on: Y537S tumors (TYS cell line); assay: TYS-luc orthotopic tumor model, SERK-F6 i.p. and oral; assay type: in vivo, mouse
# Description: FIG. 41. SERK-F6 eradicates mutant ERα primary and metastatic breast cancer. a-c, TYS-luc. orthotopic tumors were established in NSG ovariectomized mice (no E2 pellet, 60 days to establish) and dosed daily as indicated (n=5-6). b, representative examples of bioluminescence images of SERK-F6 treated mice (7 days). d,e, TDG-luc. orthotopic tumors were established in NSG ovariectomized mice (no E2 pellet, 120 days to establish) and dosed daily as indicated (n=4-5). e, Bioluminescence image of SERK-F6 treated mouse with TDG-luc. tumor burden after 7 days. f, MYS-luc. orthotopic tumors were established in NSG ovariectomized mice (no E2 pellet, 45 days to establish) and dosed daily as indicated (n=4-5). g, MDG-luc. orthotopic tumors were established in NSG ovariectomized mice (no E2 pellet, 45 days to establish) and dosed daily as indicated (n=4-5). h, Metastatic model with MDG-luc. cells injected into the tail-vein of NSG ovariectomized mice (no E2 pellet, 1.5 months to establish) and mice were dosed daily as indicated (n=4-5).
# SERK-F6 treatment was again tolerated (FIG. 42E) at higher doses and enough to eradicate tumors (FIG. 42F).
# [3] = Pharmacokinetics, brain penetration and tolerability in mice; assay type: in vivo, mouse
# Description: FIG. 40. SERK-F6 is tolerated, reaches biologically relevant concentrations, and crosses the blood-brain barrier in vivo. a, Serum concentrations of SERK-F6 after indicated doses, route of administration, and time. Concentration was determined via LC/MS/MS analysis. […] AUC: Area Under the Curve, Cmax: maximum concentration, t1/2: half-life. c,d, Mice (CD-1) were treated with the indicated doses and times, then sacrificed and their serum and brains collected. Concentrations were determined via LC/MS/MS analysis. […] Treatment arms: vehicle daily (n=3), vehicle weekly (n=3), fulv. weekly (5 mg/mouse, s.c., n=6), SERK-F6 daily (10 or 40 mg/kg p.o.). Vehicle arms were combined. g, Mass of tumors harvested from mice. h, observed murine weight during this MCF-7 study (n=6). i,j, Tumor measurements for MCF-7 bilateral orthotopic model (n=4-5).
# The pharmacokinetics of SERK-F6 was measured in mice (FIG. 40A-B).
structure (smiles),measurement,setting,value
"O=C1Nc2c(C(F)(F)F)cccc2C1(c1ccc(O)cc1)c1ccc(OC(F)(F)F)cc1 (single isomer, unassigned; (-)) [(−)-105, 3-(4-hydroxyphenyl)-3-(4-(trifluoromethoxy)phenyl)-7-(trifluoromethyl)indolin-2-one]",inhibition of the synthesis of new proteins,[1],"near-quantitative, inhibition"
same,killing of TDG-Luc cells,TDG cells (T47DERαD538G),superior to BHPI
same,tumor regrowth at sub-therapeutic dose,[2]; 10 mg/kg oral,tumors did regrow
same,tumor regrowth upon treatment cessation,[2]; after treatment cessation,tumors did not regrow
same,effect on Y537S tumors,"[2]; dose-dependent, i.p. and oral administration",eradicates Y537S tumors
same,blood-brain barrier penetration,[3],blood-brain barrier penetrant
same,tolerability in vivo,[3],well-tolerated
